In ChEMBL document CHEMBL4177679, “The identification of a novel lead class for phosphodiesterase 2 inhibition by fragment-based drug design” (Bioorg Med Chem Lett, 2017):
In brackets after ≈: the same amount, converted by molar mass.

Key:
[1] = Solubility of the compound at pH 6.5; assay type: physicochemical; details: buffer
[2] = Clearance in po dosed rat; assay type: ADME, organism-based; details: in vivo
[3] = test system: Rattus norvegicus; assay: Dose normalized AUC in po dosed rat; assay type: ADME, organism-based; details: in vivo
[4] = test system: Rattus norvegicus; assay: Volume of distribution in po dosed rat; assay type: ADME, organism-based; details: in vivo
[5] = Half-life in po dosed rat; assay type: ADME, organism-based; details: in vivo
[6] = Oral bioavailability in rat; assay type: ADME, organism-based; details: in vivo
[7] = test system: rat MDR1A; assay: Apparent permeability in pig LLC-PK1 expressing rat MDR1A; assay type: ADME, cell-based, Sus scrofa

Structure (SMILES) | solubility [1] [µM] | also measured
Cn1ncc2c(N3CCCCC3c3ccc(C(F)(F)F)cc3)nc(Cl)nc21 (configuration not stated) | 138 (≈ 54.6 µg/mL) | –
Cn1ncc2c(NCc3ccc(C(F)(F)F)cc3)nc(Cl)nc21 | 164 (≈ 56 µg/mL) | –
Cn1ncc2c(NCc3ccc(C(F)(F)F)cn3)nc(Cl)nc21 | 176 (≈ 60.3 µg/mL) | –
Cn1ncc2c(NC(C)(C)c3ccc(C(F)(F)F)cc3)nc(Cl)nc21 | 183 (≈ 67.7 µg/mL) | –
Cc1nc(NC2(c3ccc(C(F)(F)F)cc3)CC2)c2cnn(C)c2n1 | – | CL/F [2]: 2.66 L/h/kg; AUC/dose [3]: 0.24 µM·kg·h/mg; Vd [4]: 3.78 L/kg; half-life [5]: 1.34 h; bioavailability [6]: 16.9%; Papp [7]: 8.2 to 267 nm/s
Cn1ncc2c(NC3(c4ccc(C(F)(F)F)cc4)CC3)nc(O)nc21 | 175 (≈ 61.1 µg/mL) | –
Cn1ncc2c(NCCc3ccc(C(F)(F)F)cc3)nc(Cl)nc21 | 150 (≈ 53.4 µg/mL) | –
FC(F)(F)c1ccc(C2(Nc3nc(Cl)nc4[nH]ncc34)CC2)cc1 | 105 (≈ 37.1 µg/mL) | CL/F [2]: 0.506 L/h/kg; AUC/dose [3]: 6.59 µM·kg·h/mg; Vd [4]: 4.64 L/kg; half-life [5]: 6.33 h; bioavailability [6]: 146%; Papp [7]: 16.3 to 265 nm/s
Cn1ncc2c(NCc3cccc(Cl)c3)nc(Cl)nc21 | 78 (≈ 24 µg/mL) | –
Cn1ncc2c(NC3(c4ccc(C(F)(F)F)cc4)CC3)nc(C3CC3)nc21 | 125 (≈ 46.7 µg/mL) | –
Cn1ncc2c(NC3(c4ccc(C(F)(F)F)cc4)CC3)nc(Cl)nc21 | 156 (≈ 57.4 µg/mL) | –
Cn1ncc2c(NCc3ccccc3Cl)nc(Cl)nc21 | 44 (≈ 13.6 µg/mL) | –
Cn1ncc2c(N3CCCC3c3ccc(C(F)(F)F)cc3)nc(Cl)nc21 (configuration not stated) | 139 (≈ 53.1 µg/mL) | –
C[C@@H](Nc1nc(Cl)nc2c1cnn2C)c1ccc(C(F)(F)F)cc1 | 159 (≈ 56.6 µg/mL) | –
CNc1nc(Cl)nc2c1cnn2C | 206 (≈ 40.7 µg/mL) | –
Cn1ncc2c(NCc3ccc(Cl)cc3)nc(Cl)nc21 | 145 (≈ 44.7 µg/mL) | –
